The values that follow are results of earlier work, collected in patent publication US20250108061A1, “METHOD FOR TREATING ENDOMETRIOSIS AND PROVIDING EFFECTIVE CONTRACEPTION” (CHEMO RESEARCH, S.L., priority 2021, published 2025).

Data set [1] relates to women.
Data set [2] has as its system women. Conditions: at high dosages (5-15 mg/daily).

Take `C[C@]12CCC3=C4CCC(=O)C=C4CC[C@H]3[C@@H]1CC[C@@]2(O)CC#N` [DNG, Dienogest]: the “ovulation inhibition / ovarian activity” value in the data set with women [1] (2 mg daily) is on record as “provides ovulation inhibition, but ovarian activity is not completely suppressed”.
As for `C#C[C@]1(OC(C)=O)CC[C@H]2[C@@H]3CCC4=CC(=O)CC[C@@H]4[C@H]3CC[C@@]21C` [NETA, norethisterone acetate], the “dosage necessary for ovulation inhibition” value in the data set with women [1] (given continuously over 28 days) is 0.35 mg/daily. Further, the androgenic side effects result in the data set with women [2] is “can produce androgenic side effects, such as acne, hirsutism, weight gain and voice changes of slight severity in some women”.
